Values of other authors as cited in PMC11215690 (Clinical and Translational Science, 2024).

Tested on: healthy participants
Details: studies of healthy participants

SMILES | most frequently reported TEAEs
CN1C(=O)[C@@H](NC(=O)c2nnc(Cc3ccccc3)[nH]2)COc2ccccc21 [GSK2982772] | headache and skin reaction of contact dermatitis
O=C(c1nc2n(n1)[C@H](c1ccccc1)C[C@@H]2F)C1CC1 [GDC‐8264] | headache and skin reaction of contact dermatitis
